Data: EPA's ToxValDB 9.5
“And” between values parts separate entries of the source, which are not always exact repeats. Equal entries are not always repeated.

Columns and labels:
[1] = test system: Mus musculus; conditions: acute; oral; BALB/cAnCr
[2] = test system: Oryctolagus sp.; conditions: duration: 13 days, oral, gavage, New Zealand
[3] = test system: Rattus norvegicus
[4] = test system: Mus musculus; test: LD10; higher = less toxic; conditions: acute; oral; BALB/cAnCr
[5] = test system: Gallus sp.; conditions: subchronic; duration: 90 days; oral; F; ataxia, delayed neurotoxicity and weight loss
[6] = test system: Rattus norvegicus; conditions: neurological
[7] = test system: Gallus sp.; conditions: subchronic; duration: 3 months; oral; capsule; Nervous system: Ataxia + Nervous system: Delayed neurotoxicity + Whole body: Decreased weight
[8] = test system: Rattus norvegicus; conditions: oral, gavage
[9] = test system: Rattus norvegicus; test: FEL; higher = less toxic; conditions: reproduction developmental; duration: 54 days; oral; gavage; F; Wistar; generation: P0; P0: Whole Body: Mortality
[10] = developmental, duration: 10 days, oral, gavage, Crj:CD
[11] = developmental, duration: 54 days, M/F, Wistar, generation: F1, F1: Developmental: Whole Body: Dams with Stillborn Pups + F1: Developmental: Whole Body: External Abnormalities + F1: Developmental: Whole …
[12] = developmental, duration: 54 days, generation: F1, F1: Developmental: Whole Body: Dams with Liveborn Pups
[13] = reproduction developmental, duration: 28 days, M, Wistar, generation: P0, P0: Reproductive: Reproductive Organs: Reproductive Organ Histopathology + P0: Reproductive: Whole Body: Copulation Index
[14] = reproduction developmental, duration: 28 days, M, Wistar, generation: P0, P0: Whole Body: Copulation Index
[15] = reproduction developmental, duration: 54 days, F, Wistar, generation: P0, P0: Developmental: Uterus: Implantation + P0: General Toxicity: Whole Body: Clinical Observations + P0: General Toxicity: Whole Body: …
[16] = reproduction developmental, duration: 54 days, F, Wistar, generation: P0, P0: Reproductive: Reproductive Organs: Reproductive Organ Histopathology + P0: Reproductive: Whole Body: Copulation Index + P0: Reproductive…
[17] = reproduction developmental, duration: 54 days, F, Wistar, generation: P0, P0: Reproductive: Whole Body: Length of Gestation
[18] = reproduction developmental, duration: 54 days, F, Wistar, generation: P0, P0: Whole Body: Clinical Observations + P0: Whole Body: Maternal Body Weight + P0: Whole Body: Maternal Body Weight Change
[19] = reproduction developmental, duration: 54 days, F, Wistar, generation: P0, P0: Whole Body: Copulation Index
[20] = reproduction developmental, duration: 54 days, F, Wistar, generation: P0, P0: Whole Body: Length of Gestation + P0: Whole Body: Mortality
[21] = reproduction developmental, duration: 54 days, M/F, Wistar, generation: F1, F1: Whole Body: Litter Weight
[22] = short-term, duration: 28 days, M, Wistar, Adrenal: Adrenal Gland Histopathology + Dermal: Ruffled Fur + Liver: Liver Histopathology + Nerve: Nervous Tissue Histopathology + …
[23] = short-term, duration: 28 days, M, Wistar, Adrenal: Adrenal Gland Weight, Relative + Liver: Liver Weight, Absolute + Lung: Lung Histopathology + Lung: Respiration Distress + Thymus: …
[24] = short-term, duration: 28 days, M, Wistar, Endocrine: Adrenal: Adrenal Gland Histopathology + Endocrine: Adrenal: Adrenal Gland Weight, Absolute + Endocrine: Adrenal: Adrenal Gland …
[25] = short-term, duration: 28 days, M, Wistar, Other Systems: Eye: Ophthalmology + Other Systems: Lung: Lung Histopathology + Other Systems: Lung: Respiration Distress
[26] = subchronic, duration: 54 days, F, Wistar, Adrenal: Adrenal Gland Histopathology + Liver: Liver Histopathology + Nerve: Nervous Tissue Histopathology + Whole Body: Function …
[27] = subchronic, duration: 54 days, F, Wistar, Dermal: Ruffled Fur + Lung: Lung Histopathology + Lung: Respiration Distress + Peripheral Nervous System: Paresis + Thymus: Thymus …
[28] = subchronic, duration: 54 days, F, Wistar, Endocrine: Adrenal: Adrenal Gland Histopathology + Endocrine: Adrenal: Adrenal Gland Weight, Absolute + Endocrine: Adrenal: Adrenal Gland …
[29] = subchronic, duration: 54 days, F, Wistar, Other Systems: Eye: Ophthalmology + Other Systems: Lung: Lung Histopathology + Other Systems: Lung: Respiration Distress

Compound: CNC=O [N-Methylformamide]
- LD50 [1]: 2600 mg/kg
- LOAEL ([2]; developmental): 50 mg/kg-day
- NOAEL ([2]; developmental): 10 mg/kg-day
- LOAEL ([2]; reproduction developmental, F): 50 mg/kg-day
- NOAEL ([2]; reproduction developmental, F): 10 mg/kg-day
- LD50 ([3]; acute, oral): 4000 mg/kg
- LOAEL [3, 10]: 75 mg/kg-day
- NOAEL [3, 10]: 10 mg/kg-day
- NOAEL ([3]; reproduction developmental, duration: 10 days, inhalation, F, Crl: CD BR): 36.2 mg/m3
- NOAEL ([3]; short-term, duration: 2 weeks, inhalation, M, Crl:CD(SD)): 0.12 mg/L
- LD10 [4]: 1800 mg/kg

Compound: CCCCSP(=O)(SCCCC)SCCCC [Tribufos]
- LC50 ([3]; acute, Inhalation, Sprague-Dawley): ≥ 2460 mg/m3 and ≤ 4650 mg/m3
- LOAEL [5]: 0.5 mg/kg-day
- NOEL [5]: 0.1 mg/kg-day
- NOAEL ([6]; reproduction developmental, duration: 364 days, oral, diet, M, Sprague-Dawley): 0.28 mg/kg-day
- NOAEL ([6]; subchronic, duration: 13 weeks, inhalation, head only, M/F, Wistar): 2.43 mg/m3
- NOEL [7]: 0.1 mg/kg-day

Compound: CCO[Si](CCC(F)(F)C(F)(F)C(F)(F)C(F)(F)C(F)(F)C(F)(F)F)(OCC)OCC [Triethoxy((perfluorohexyl)ethyl)silane]
- LOAEL [8, 11]: 100 mg/kg-day
- NOAEL [8, 11]: 50 mg/kg-day
- LOAEL [8, 12]: 100 mg/kg-day
- NOAEL [8, 12]: 50 mg/kg-day
- NEL ([8]; reproduction developmental, duration: 28 days, M, Wistar, generation: P0, P0: Reproductive Organs: Reproductive Organ Histopathology): 125 mg/kg-day
- LOAEL [8, 13]: 125 mg/kg-day
- NOAEL [8, 13]: 100 mg/kg-day
- LEL [8, 14]: 125 mg/kg-day
- NEL [8, 14]: 100 mg/kg-day
- LOAEL [8, 15]: 100 mg/kg-day
- NOAEL [8, 15]: 50 mg/kg-day
- NEL ([8]; reproduction developmental, duration: 54 days, F, Wistar, generation: P0, P0: Reproductive Organs: Reproductive Organ Histopathology + P0: Whole Body: Fertility Index): 125 mg/kg-day
- LOAEL [8, 16]: 125 mg/kg-day
- NOAEL [8, 16]: 100 mg/kg-day
- LOAEL [8, 17]: 125 mg/kg-day
- NOAEL [8, 17]: 100 mg/kg-day
- NEL ([8]; reproduction developmental, duration: 54 days, F, Wistar, generation: P0, P0: Uterus: Implantation): 125 mg/kg-day
- LEL [8, 18]: 100 mg/kg-day
- NEL [8, 18]: 50 mg/kg-day
- LEL [8, 19]: 125 mg/kg-day
- NEL [8, 19]: 100 mg/kg-day
- LEL [8, 20]: 125 mg/kg-day
- NEL [8, 20]: 100 mg/kg-day
- NEL ([8]; reproduction developmental, duration: 54 days, M/F, Wistar, generation: F1, F1: Whole Body: Dams with Liveborn Pups): 125 mg/kg-day
- NEL ([8]; reproduction developmental, duration: 54 days, M/F, Wistar, generation: F1, F1: Whole Body: Dams with Stillborn Pups + F1: Whole Body: External Abnormalities + F1: Whole Body: Litter Size + F1: Whole Body: Male Pups …): 125 mg/kg-day
- LEL [8, 21]: 100 mg/kg-day
- NEL [8, 21]: 50 mg/kg-day
- LEL [8, 22]: 100 mg/kg-day
- NEL [8, 22]: 50 mg/kg-day
- NEL ([8]; short-term, duration: 28 days, M, Wistar, Adrenal: Adrenal Gland Weight, Absolute + Blood: Hematology, Unspecified + Eye: Ophthalmology, Unspecified + Kidney: Urinalysis, Unspecified…): 150 mg/kg-day
- LEL [8, 23]: 150 mg/kg-day
- NEL [8, 23]: 100 mg/kg-day
- LOAEL [8, 24]: 100 mg/kg-day
- NOAEL [8, 24]: 50 mg/kg-day
- NOAEL ([8]; short-term, duration: 28 days, M, Wistar, Hematologic: Blood: Hematology, Unspecified + Urinary: Kidney: Urinalysis): 125 mg/kg-day
- LOAEL [8, 25]: 125 mg/kg-day
- NOAEL [8, 25]: 100 mg/kg-day
- LEL [8, 26]: 100 mg/kg-day
- NEL [8, 26]: 50 mg/kg-day
- NEL ([8]; subchronic, duration: 54 days, F, Wistar, Adrenal: Adrenal Gland Weight, Absolute + Adrenal: Adrenal Gland Weight, Relative + Blood: Hematology, Unspecified + Eye: Ophthalmology, …): 150 mg/kg-day
- LEL [8, 27]: 150 mg/kg-day
- NEL [8, 27]: 100 mg/kg-day
- LOAEL [8, 28]: 100 mg/kg-day
- NOAEL [8, 28]: 50 mg/kg-day
- NOAEL ([8]; subchronic, duration: 54 days, F, Wistar, Hematologic: Blood: Hematology, Unspecified + Urinary: Kidney: Urinalysis): 125 mg/kg-day
- LOAEL [8, 29]: 125 mg/kg-day
- NOAEL [8, 29]: 100 mg/kg-day
- LEL ([8]; subchronic, duration: 54 days, F, Wistar, Whole Body: Maternal Body Weight): 50 mg/kg-day
- FEL [9]: 125 mg/kg-day
